{
  "source": "patent US20170157192A1",
  "about": "“USE OF THE CHINESE MEDICINE COMPOSITION AND DIANXIANNING IN THE PREPARATION OF A MEDICAMENT FOR PREVENTING OR TREATING ALZHEIMER'S DISEASES” (Lanzhou University, priority 2014, published 2017)",
  "key": {"[1]": {"system": "transgenic C. elegans strain CL4176 expressing human Aβ", "assay": "Aβ-induced paralysis in transgenic C. elegans strain CL4176", "format": "in vivo, Caenorhabditis elegans", "conditions": "Example 2, FIG. 1, dose-dependent", "from_the_text": "The present invention employed the transgenic C. elegans strain CL4176 as a pathological model to evaluate the effect of the Chinese medicine and DXN on preventing or treating AD. The principle of Aβ theory of AD is based on that Aβ aggregates in the cerebral cortex and hippocampus and subsequently forms senile plaques (SP), which is one of the most major pathological features of AD. Toxic Aβ can effectively weaken the structure and function of synapses, and cause memory impairment on the AD patients. Transgenic C. elegans strain CL4176 which expresses the human Aβ species in the muscle tissue that can induce Aβ-dependent paralysis at 25° C. was used in the present invention. Aβ aggregates in the muscle tissue, eventually resulting in the paralysis of CL4176. The medicament acts on C. elegans strain CL4176.\n(1) C. elegans CL4176 is purchased from Caenorhabditis Genetics Center; which is a transgenic strain and muscle-specific expression of human Aβ can be induced at 25° C., and Aβ is aggregated in muscle tissue, resulting in the paralysis of C. elegans. CL4176 worm was used in the invention as a pathological model to screen and evaluate the anti-AD actions of the Chinese medicine compositions and DXN.\nThe synchronized C. elegans eggs were placed onto solid NGM coated with OP50 and containing different concentration of Memantine Hydrochloride. The blank control is a NMG medium coated with OP50 and added with the same volume of ddH2O to replace the Memantine Hydrochloride. The worms were cultured at 16° C. for 3 days to L3 larvae (about 60 worms per plate). The results are presented as the average of three biological replicates.\nIn order to induce the Aβ expression, the culture temperature of transgenic L3 larvae C. elegans CL4176 was shifted from 16° C. to 25° C. for 34 h. Then paralysis individuals were counted under a dissecting stereo microscope at 2 h intervals until all worms became paralyzed.\nThe synchronized C. elegans eggs were placed onto solid NGM coated with OP50 and containing working concentration of the Chinese medicine compositions. […]"}, "C. elegans CL4176": {"system": "C. elegans CL4176", "assay": "Toxicity on growth and development (body length) of C. elegans", "format": "in vivo, Caenorhabditis elegans", "conditions": "Example 2, FIG. 1", "experimental": "C. elegans are sensitive to environmental changes, and drug toxicity can be accurately evaluated by using C. elegans. The body length is one of the most commonly used indictors of developmental toxicity.\nAfter the end of paralysis experiment, worms were immediately placed at 50° C. for 15 min to straighten the body of every worm. The worms were observed and photographed under a microscope, and measured the length of every worm using MvImage system."}, "[2]": {"system": "transgenic C. elegans strain CL4176 expressing human Aβ", "conditions": "2.16 mg/mL; it has been reported; cited from earlier work"}},
  "note": "Where a name gives a salt, the structure may show the parent alone.",
  "data": [
    {"smiles": "CC12CC3CC(C)(C1)CC(N)(C3)C2", "note": "[Menantine Hydrochloride, 1-amino-3,5-dimethyl amantadine hydrochloride]", "values": [
      {"measurement": "delay of Aβ-induced paralysis of CL4176", "setting": "[1]; 4.32 μg/mL in NGM", "result": "significantly delayed the paralysis"},
      {"measurement": "delay of Aβ-induced paralysis of CL4176", "setting": "[1]; 0.86m/mL in NGM", "result": "significantly delayed the paralysis"},
      {"measurement": "delay of Aβ-induced paralysis of CL4176", "setting": "[1]; 21.58m/mL in NGM", "result": "significantly delayed the paralysis"},
      {"measurement": "inhibition of development of C. elegans", "setting": "C. elegans CL4176; 107.88 m/mL in NGM", "result": "strongly inhibit the development"},
      {"measurement": "inhibition of development of C. elegans", "setting": "C. elegans CL4176; 215.76 m/mL in NGM", "result": "strongly inhibit the development"},
      {"measurement": "delay of Aβ-induced paralysis in transgenic CL4176 (reported)", "setting": "[2]", "result": "significantly delay Aβ-induced paralysis"}
    ]}
  ]
}
